Values of other authors as cited in PubChem BioAssay AID1259409 (Chemical Carcinogenesis Research Information System (CCRIS), 2018).

Tested on: rodent chemically induced tumor inhibition, incidence and multiplicity
Assay: CCRIS tumor inhibitor studies

In the case of Cc1cc(C(C)(C)C)c(O)c(C(C)(C)C)c1, the “tumour outcome (control, treated, inhibition, significance)” value (Carcinogen: 1,2-DIMETHYLHYDRAZINE DIHYDROCHLORIDE, 306-37-6, Dose [Inhibitor]: 6600 PPM IN DIET FOR 23 WK (STUDY DURATION: 23 WK), Route [Inhibitor]: ORAL, Species: RAT, Strain/Sex: SPRAGUE-DAWLEY MALE, Target Tissue: Type of Lesion: CECUM: TUMOR, Dose [Carcinogen]: 30 MG/KG IN SALINE 1/WK FOR THE FIRST 9 WK OF STUDY (10 DOSES), SIMULTANEOUSLY WITH INHIBITOR, Promoter: NONE USED) is listed as 1/10 (10%), 4/9 (44%), -340%, not calculated, the “tumour outcome (control, treated, inhibition, significance)” value (Carcinogen: 1,2-DIMETHYLHYDRAZINE DIHYDROCHLORIDE, 306-37-6, Dose [Inhibitor]: 6600 PPM IN DIET FOR 23 WK (STUDY DURATION: 23 WK), Route [Inhibitor]: ORAL, Species: RAT, Strain/Sex: SPRAGUE-DAWLEY MALE, Target Tissue: Type of Lesion: COLON: TUMOR, Dose [Carcinogen]: 30 MG/KG IN SALINE 1/WK FOR THE FIRST 9 WK OF STUDY (10 DOSES), SIMULTANEOUSLY WITH INHIBITOR, Promoter: NONE USED) is listed as 10/10 (100%), 9/9 (100%), 0%, not calculated and the “tumour outcome (control, treated, inhibition, significance)” value (Carcinogen: 1,2-DIMETHYLHYDRAZINE DIHYDROCHLORIDE, 306-37-6, Dose [Inhibitor]: 6600 PPM IN DIET FOR 23 WK (STUDY DURATION: 23 WK), Route [Inhibitor]: ORAL, Species: RAT, Strain/Sex: SPRAGUE-DAWLEY MALE, Target Tissue: Type of Lesion: DUODENUM: TUMOR, Dose [Carcinogen]: 30 MG/KG IN SALINE 1/WK FOR THE FIRST 9 WK OF STUDY (10 DOSES), SIMULTANEOUSLY WITH INHIBITOR, Promoter: NONE USED) is listed as 8/10 (80%), 5/9 (56%), 30%, not calculated. The “tumour outcome (control, treated, inhibition, significance)” value (Carcinogen: 1,2-DIMETHYLHYDRAZINE, 540-73-8, Dose [Inhibitor]: 0, 0.5% IN DIET BEGINNING 1 WK POST LAST CARCINOGEN DOSE AND CONTINUING FOR 36 WK (STUDY DURATION: 40 WK), Route [Inhibitor]: ORAL, Species: RAT, Strain/Sex: F344/MALE, Target Tissue: Type of Lesion: COLON: ADENOMA, Dose [Carcinogen]: 20 MG/KG 1/WK FOR 4 WK, Promoter: NONE USED) was 5/18 (28%), 4/19 (21%), 25%, not calculated, the “tumour outcome (control, treated, inhibition, significance)” value (Carcinogen: 1,2-DIMETHYLHYDRAZINE, 540-73-8, Dose [Inhibitor]: 0, 0.5% IN DIET BEGINNING 1 WK POST LAST CARCINOGEN DOSE AND CONTINUING FOR 36 WK (STUDY DURATION: 40 WK), Route [Inhibitor]: ORAL, Species: RAT, Strain/Sex: F344/MALE, Target Tissue: Type of Lesion: COLON: CARCINOMA, Dose [Carcinogen]: 20 MG/KG 1/WK FOR 4 WK, Promoter: NONE USED) was 7/18 (39%), 9/19 (48%), -23%, not calculated and the “tumour outcome (control, treated, inhibition, significance)” value (Carcinogen: 1,2-DIMETHYLHYDRAZINE, 540-73-8, Dose [Inhibitor]: 0, 250 MG/KG BW IN CORN OIL 1/D FOR 2 WK PRIOR TO FIRST CARCINOGEN DOSE THEN 3/WK FOR DURATION OF STUDY (STUDY DURATION:, Route [Inhibitor]: GAVAGE, Species: RAT, Strain/Sex: BD6/MALE, Target Tissue: Type of Lesion: INTESTINE: TUMOR, Dose [Carcinogen]: 20 MG/KG BW 1/WK FOR 20 WK, Promoter: NONE USED) was 100%, 100%, 0%, not significant. The “tumour outcome (control, treated, inhibition, significance)” value (Carcinogen: 1,2-DIMETHYLHYDRAZINE, 540-73-8, Dose [Inhibitor]: 0.5% IN DIET STARTING 2 WK PRIOR TO CARCINOGEN TREATMENT AND CONTINUING FOR DURATION OF STUDY (STUDY DURATION: 28 WK), Route [Inhibitor]: ORAL, Species: RAT, Strain/Sex: SPRAGUE-DAWLEY/MALE, Target Tissue: Type of Lesion: COLON: ADENOCARCINOMA, Dose [Carcinogen]: 20 MG/KG BW IN BACTERIOSTATIC SALINE 1/WK FOR 20 WK, Promoter: NONE USED) was 9/14 (64%), 3/7 (43%), 33%, not calculated, the “tumour outcome (control, treated, inhibition, significance)” value (Carcinogen: 1,2-DIMETHYLHYDRAZINE, 540-73-8, Dose [Inhibitor]: 0.75% IN DIET FOR LIFE BEGINNING AT 8 WK OF AGE (STUDY DURATION: 10 MO POST FIRST CARCINOGEN TREATMENT), Route [Inhibitor]: ORAL, Species: MOUSE, Strain/Sex: BALB/FEMALE, Target Tissue: Type of Lesion: LARGE INTESTINE: TUMOR, Dose [Carcinogen]: 20 MG/KG BW IN SALINE FOR 10 WK BEGINNING AT 11 WK OF AGE, Promoter: NONE USED) was 9/18 (50%), 15/25 (60%), -20%, not significant and the “tumour outcome (control, treated, inhibition, significance)” value (Carcinogen: 1,2-DIMETHYLHYDRAZINE, 540-73-8, Dose [Inhibitor]: 0.75% IN DIET FOR LIFE BEGINNING AT 8 WK OF AGE (STUDY DURATION: 10 MO POST FIRST CARCINOGEN TREATMENT), Route [Inhibitor]: ORAL, Species: MOUSE, Strain/Sex: BALB/MALE, Target Tissue: Type of Lesion: LARGE INTESTINE: TUMOR, Dose [Carcinogen]: 20 MG/KG BODY WEIGHT IN SALINE FOR 10 WK BEGINNING AT 11 WK OF AGE, Promoter: NONE USED) was 15/20 (75%), 12/35 (34%), 55%, p=0.0036. For the same compound, the “tumour outcome (control, treated, inhibition, significance)” value (Carcinogen: 2-ACETYLAMINOFLUORENE, 53-96-3, Dose [Inhibitor]: 0, 100 PPM IN DIET CONCURRENTLY WITH CARCINOGEN FOR STUDY DURATION (STUDY DURATION: 76 WK), Route [Inhibitor]: ORAL, Species: RAT, Strain/Sex: F344/MALE, Target Tissue: Type of Lesion: LIVER: HEPATOCELLULAR TUMOR, Dose [Carcinogen]: 50 PPM IN DIET FOR 76 WK) was 20/20 (100%), 18/18 (100%), 0%, not calculated, the “tumour outcome (control, treated, inhibition, significance)” value (Carcinogen: 2-ACETYLAMINOFLUORENE, 53-96-3, Dose [Inhibitor]: 0, 100 PPM IN SEMISYNTHETIC DIET CONCURRENTLY WITH CARCINOGEN FOR STUDY DURATION (STUDY DURATION: 76 WK), Route [Inhibitor]: ORAL, Species: RAT, Strain/Sex: F344/MALE, Target Tissue: Type of Lesion: BLADDER: CARCINOMA, Dose [Carcinogen]: 50 PPM IN DIET FOR 76 WK) was 1/17 (6%), 0/16 (0%), 100%, not calculated and the “tumour outcome (control, treated, inhibition, significance)” value (Carcinogen: 2-ACETYLAMINOFLUORENE, 53-96-3, Dose [Inhibitor]: 0, 100 PPM IN SEMISYNTHETIC DIET CONCURRENTLY WITH CARCINOGEN FOR STUDY DURATION (STUDY DURATION: 76 WK), Route [Inhibitor]: ORAL, Species: RAT, Strain/Sex: F344/MALE, Target Tissue: Type of Lesion: LIVER: HEPATOCELLULAR TUMORS, Dose [Carcinogen]: 50 PPM IN DIET FOR 76 WK) was 17/17 (100%), 16/16 (100%), 0%, not significant. The outcome (Carcinogen: 2-ACETYLAMINOFLUORENE, 53-96-3, Dose [Inhibitor]: 0, 300 PPM IN DIET CONCURRENTLY WITH CARCINOGEN FOR STUDY DURATION (STUDY DURATION: 76 WK), Route [Inhibitor]: ORAL, Species: RAT, Strain/Sex: F344/MALE, Target Tissue: Type of Lesion: LIVER: ADENOMA, Dose [Carcinogen]: 50 PPM IN DIET FOR 76 WK) was 19.2, 13.4, 30%, p<0.05, the “tumour outcome (control, treated, inhibition, significance)” value (Carcinogen: 2-ACETYLAMINOFLUORENE, 53-96-3, Dose [Inhibitor]: 0, 300 PPM IN DIET CONCURRENTLY WITH CARCINOGEN FOR STUDY DURATION (STUDY DURATION: 76 WK), Route [Inhibitor]: ORAL, Species: RAT, Strain/Sex: F344/MALE, Target Tissue: Type of Lesion: LIVER: HEPATOCELLULAR TUMOR, Dose [Carcinogen]: 50 PPM IN DIET FOR 76 WK) was 20/20 (100%), 17/17 (100%), 0%, not calculated and the “tumour outcome (control, treated, inhibition, significance)” value (Carcinogen: 2-ACETYLAMINOFLUORENE, 53-96-3, Dose [Inhibitor]: 0, 1000 PPM IN DIET CONCURRENTLY WITH CARCINOGEN FOR STUDY DURATION (STUDY DURATION: 76 WK), Route [Inhibitor]: ORAL, Species: RAT, Strain/Sex: F344/MALE, Target Tissue: Type of Lesion: LIVER: HEPATOCELLULAR TUMOR, Dose [Carcinogen]: 50 PPM IN DIET FOR 76 WK) was 20/20 (100%), 19/19 (100%), 0%, not calculated.
